We go through 14 compounds from publication PMC11672724, “Antiparasitic Activities of Acyl Hydrazones from Cinnamaldehydes and Structurally Related Fragrances” (Antibiotics, 2024).

For experiment [1], the system named is L. major amastigotes. Description: Leishmania major amastigotes in peritoneal macrophages (percentage of infected macrophages, 72 h). It counts as cell-based. The conditions noted are these: Macrophage, IC50 ± SD. Here is the method:
(§1) Promastigotes of L. major were obtained from a patient (February 2016) and cultured at 26 °C in Schneider’s Drosophila medium (Invitrogen, Carlsbad, CA, USA) supplemented with 10% heat-inactivated fetal bovine serum (FBS, Invitrogen, USA) and antibiotics, with weekly transfers in a tissue culture flask. Promastigotes were cryopreserved in liquid nitrogen at a concentration of 3 × 10^6 parasites/mL. Virulent L. major parasites were maintained by serial passage in female BALB/c mice, achieved by injecting hind footpads with 1 × 10^6 stationary-phase promastigotes. Amastigotes were isolated from the mice after 8 weeks, then converted to promastigotes by cultivation at 26 °C in Schneider’s medium containing 10% FBS and antibiotics. Amastigote-derived promastigotes, which underwent several in vitro passages, were used for the infection studies. BALB/c mice (both male and female) were provided by the Pharmaceutical College, King Saud University, Kingdom of Saudi Arabia, and housed in specific pathogen-free conditions following the ethical guidelines of the Qassim University Research Ethics Committee (permission number: 20-03-20).
Activity against amastigotes in macrophages was evaluated using peritoneal macrophages, which were harvested from 6–8-week-old BALB/c mice of different sex, and plated at 5 × 10^4 cells/well in 96-well plates containing phenol-red-free RPMI 1640 medium with 10% FBS. After 4 h at 37 °C and 5% CO2 to promote adhesion, cells were washed with PBS, and 200 μL of an L. major promastigote solution (10 promastigotes per macrophage) was added. Plates were incubated for 24 h at 37 °C in a 5% CO2 environment to allow infection and amastigote differentiation. Infected cells were then washed with PBS and overlaid with RPMI 1640 medium containing the test compounds at the same concentrations as applied for the experiments with promastigotes, followed by incubation at 37 °C and 5% CO2 for 72 h. […] IC50 values were calculated from three independent experiments.

Experiment [2] has as its system Vero monkey kidney cells. Description: Vero cell cytotoxicity (MTT assay, 72 h). Format: cell-based. The conditions noted are these: Primates, IC50 ± SD. The protocol:
To assess the test compounds’ cytotoxicity, MTT assays were performed. The Vero cells and macrophages were cultivated for 24 h at 37 °C in RPMI 1640 media with 10% FBS and 5% CO2 in 96-well plates (5 × 10^3 cells/well/200 μL). Following a washing step with PBS, the cells were treated with test compounds at different concentrations (50, 25, 12.5, 6.25, 3.13, 1.65, and 0.75 μg /mL) in 10% FBS medium for 72 h. Negative control cells were only given media with 2% FBS and 1% DMSO. The cells were cultured for 4 h after the supernatant was disposed of, and 50 μL of RPMI 1640 media containing 14 μL MTT (5 mg/mL) was added. After removing the supernatant once again, 150 μL of DMSO was added. IC50 values were determined from three independent experiments.

Experiment [3] relates to macrophages. Description: Macrophage cytotoxicity (MTT assay, 72 h). Format: cell-based, BALB/c mice. The note with it: Mus musculus, IC50 ± SD. Here is the method: Plates were incubated for 24 h at 37 °C in a 5% CO2 environment to allow infection and amastigote differentiation. Infected cells were then washed with PBS and overlaid with RPMI 1640 medium containing the test compounds at the same concentrations as applied for the experiments with promastigotes, followed by incubation at 37 °C and 5% CO2 for 72 h. […] The percentage of infected macrophages was determined microscopically after fixation, Giemsa staining, and medium removal. IC50 values were calculated from three independent experiments. To assess the test compounds’ cytotoxicity, MTT assays were performed. […] Negative control cells were only given media with 2% FBS and 1% DMSO. The cells were cultured for 4 h after the supernatant was disposed of, and 50 μL of RPMI 1640 media containing 14 μL MTT (5 mg/mL) was added. After removing the supernatant once again, 150 μL of DMSO was added. IC50 values were determined from three independent experiments.

The subject of experiment [4] is L. major promastigotes. The experiment in a line: Leishmania major promastigote assay (MTT, 72 h). Format: cell-based. The protocol: as §1
L. major promastigotes in the logarithmic phase were cultured in phenol-red-free RPMI 1640 medium (Invitrogen, USA) with 10% FBS in 96-well plates at 10^6 cells/mL (200 μL/well, counted with a hemocytometer). Test compounds were added at final concentrations of 50, 25, 12.5, 6.25, 3.13, 1.65, and 0.75 μg/mL. […] After incubation at 26 °C for 72 h, viable promastigotes were counted using an MTT colorimetric assay. The formed formazan was dissolved in a detergent and the absorbance was measured at 570 nm using an ELISA reader. IC50 values were derived from three independent experiments.

Experiment [5] deals with T. gondii RH strain tachyzoites. The experiment in a line: Toxoplasma gondii cells drug testing assay (infection index in Vero cells, 72 h). It counts as cell-based. The conditions noted are these: for IC50: Toxoplasma gondii, Vero, IC50 ± SD, three independent experiments, 72 h; for SI = selectivity index (Vero/T. gondii): ratio IC50 Vero / IC50 T. gondii. The protocol:
Cells of the Vero cell line (ATCC® CCL81™, Manassas, VA, USA) were used to cultivate T. gondii RH strain tachyzoites. Vero cells were maintained in complete RPMI 1640 medium (Thermo Fisher Scientific, Waltham, MA, USA). For cell cultivation, 96-well plates were prepared with 5 × 10^3 cells per well in 200 μL of RPMI 1640 medium, then incubated at 37 °C and 5% CO2 for 24 h. The medium was then removed, and cells were washed with phosphate-buffered saline (PBS). Next, RPMI 1640 medium with 2% FBS and parasites at a 5:1 parasite-to-cell ratio were added. After a 5 h incubation at 37 °C and 5% CO2, cells were washed with PBS and subjected to further treatments. […] After incubation at 37 °C and 5% CO2 for 72 h, cells were washed with PBS, fixed in 10% formalin, and stained with 1% toluidine blue. An inverted photomicroscope was used to assess cell infection and to determine the infection index (number of infected cells out of 200 counted cells). The inhibition percentage was calculated as follows:Inhibition (%) = [(I Control − I Experimental)/I Control] × 100 where “I Control” represents the infection index of untreated cells, and “I Experimental” represents the infection index of cells treated with test compounds. The effects of the compounds on parasite growth are expressed as IC50 values derived from three independent experiments.

Where [6] appears, read: Leishmania major, 72 h, IC50 ± SD, MTT.
[7] abbreviates: ratio IC50 macrophages / IC50 promastigotes.
[8] abbreviates: verbal statement in text on the L. major experiments.

SMILES strings stand for the structures.

With `CC(C)c1cccc(C(C)C/C=N/NC(=O)c2ccncc2)c1` (centres unmarked) [Compound 4g, N′-3-(3-Isopropylphenyl)butanylidene-isonicotinoylhydrazide], the concentration for half-maximal inhibition (IC50) in experiment [1] is over 64.6 µM; in experiment [2], over 64.6 µM; in experiment [3], over 64.6 µM; in experiment [4] (setting [6]), 54.6 ± 9 µM; in experiment [5] it was over 64.6 µM. Moreover, in experiment [4] (setting [7]), the “SI (promastigotes) = selectivity index (macrophages/L. major promastigotes)” value (shortened to “SI (promastigotes) = selectivity index”) is listed as over 1.2.
As to `CC(C)Cc1ccc(CC(C)/C=N/NC(=O)c2cccc(F)c2)cc1` (centres unmarked) [Compound 3e, N′-2-Methyl-3-[4-(2-methylpropyl)phenyl]propanylidene-3-fluorobenzoylhydrazide], the IC50 is over 58.8 µM in experiment [1]; 53.5 ± 8.5 µM in experiment [2]; over 58.8 µM in experiment [3]; over 58.8 µM in experiment [4] (setting [6]); 45.3 ± 6.9 µM in experiment [5]. Further, the “SI = selectivity index (Vero/T. gondii)” value in experiment [5] is 1.2.
For the compound `CC(C)c1cccc(C(C)CC=O)c1` (centres unmarked) [Florhydral^TM, 3-(3-isopropylphenyl)butanal, reference compound], the IC50 was over 105 µM in experiment [1]; 99.1 ± 18.4 µM in experiment [2]; over 105 µM in experiment [3]; over 105 µM in experiment [4] (setting [6]); over 105 µM in experiment [5].
For `CC(C)c1cccc(C(C)C/C=N/NC(=O)c2ccccc2F)c1` (centres unmarked) [Compound 4d, N′-3-(3-Isopropylphenyl)butanylidene-2-fluorobenzoylhydrazide], the IC50 in experiment [1], in experiment [2], in experiment [3], in experiment [4] (setting [6]) and in experiment [5] was over 61.3 µM each time.
Turning to `C(=C\c1ccccc1)/C=N/Nc1ccccc1` [CPH, Cinnamaldehyde phenyl hydrazone, reference compound], the IC50 was 23.6 ± 3.9 µM in experiment [2], 78.4 ± 12.2 µM in experiment [3], 83.7 ± 13.6 µM in experiment [4] (setting [6]) and 12.9 ± 2.1 µM in experiment [5]. In experiment [4] (setting [7]), the “SI (promastigotes) = selectivity index” value is 0.94. The “SI = selectivity index (Vero/T. gondii)” value in experiment [5] is recorded as 1.8.
Consider `CC(C)Cc1ccc(CC(C)C=O)cc1` (centres unmarked) [Silvial^TM, 2-methyl-3-[4-(2-methylpropyl)phenyl]propanal, reference compound], for which the IC50 in experiment [1] is over 97.9 µM; in experiment [2], over 97.9 µM; in experiment [3], over 97.9 µM; in experiment [4] (setting [6]), over 97.9 µM; in experiment [5], 90.1 ± 15.2 µM.
As to `CC(C)c1cccc(C(C)C/C=N/NC(=O)c2cccc(Cl)c2)c1` (centres unmarked) [Compound 4f, N′-3-(3-Isopropylphenyl)butanylidene-3-chlorobenzoylhydrazide], the IC50 in experiment [1] is over 58.3 µM; in experiment [2], 57.9 ± 11 µM; in experiment [3], over 58.3 µM; in experiment [4] (IC50 ± SD, MTT, 72 h) it was 27.9 ± 4.2 µM; in experiment [4] (setting [6]) it was under 30 µM; in experiment [5], 47.5 ± 7.3 µM. The “SI (promastigotes) = selectivity index” value in experiment [4] (setting [7]) is over 2.1. For the same compound, the “SI = selectivity index (Vero/T. gondii)” value in experiment [5] stood at 1.2.
`CC(C)c1cccc(C(C)C/C=N/NC(=O)c2ccccc2O)c1` (centres unmarked) [Compound 4b, N′-3-(3-Isopropylphenyl)butanylidene-2-hydroxybenzoylhydrazide]: the IC50 in experiment [1] was 45.4 ± 7.9 µM; in experiment [2] it was 19.2 ± 2.2 µM; in experiment [3], 50.3 ± 9.4 µM; in experiment [4] (setting [6]), 39.5 ± 5.9 µM; in experiment [5], 21 ± 3.5 µM. Also, the “SI (promastigotes) = selectivity index” value in experiment [4] (setting [7]) is recorded as 1.3. The “SI = selectivity index (Vero/T. gondii)” value in experiment [5] was determined as 0.92.
As for `CN(C)c1ccc(/C=C/C=N/NC(=O)c2ccncc2)cc1` [Compound 2m], the IC50 is over 44.8 µM in experiment [1]; 41.5 ± 7.2 µM in experiment [2]; over 44.8 µM in experiment [3]; over 44.8 µM in experiment [4] (setting [6]); 31.6 ± 6.2 µM in experiment [5]. The “SI = selectivity index (Vero/T. gondii)” value in experiment [5] was determined as 1.3.
With `O=C/C=C/c1ccccc1` [Cinnamaldehyde, (2E)-3-phenylprop-2-enal], the IC50 is over 151 µM in experiment [1]; over 151 µM in experiment [2]; over 151 µM in experiment [3]; over 151 µM in experiment [4] (Leishmania major; IC50 ± SD, MTT, 72 h); over 151 µM in experiment [5]. The “activity against T. gondii (in words)” value in experiment [5] was “inactive”.
On to `CC(C)Cc1ccc(CC(C)/C=N/NC(=O)c2cc3ccccc3cc2O)cc1` (centres unmarked) [Compound 3a, N′-2-Methyl-3-[4-(2-methylpropyl)phenyl]propanylidene-3-hydroxy-2-naphthoic hydrazide], for which the IC50 in experiment [1] is over 51.5 µM; in experiment [2] it was 41.3 ± 6.9 µM; in experiment [3], over 51.5 µM; in experiment [4] (setting [6]), over 51.5 µM; in experiment [5], 46.9 ± 8.4 µM. Besides, the “SI = selectivity index (Vero/T. gondii)” value in experiment [5] is 0.88.
Regarding `O=C(N/N=C/C=C/c1ccccc1)c1cc2ccccc2cc1O` [Compound 2a], the IC50 in experiment [1] is over 41.7 µM; in experiment [2] it was 7.3 ± 0.9 µM; in experiment [3], over 41.7 µM; in experiment [4] (setting [6]) it was 16.8 ± 2.8 µM; in experiment [5], 0.63 ± 0.08 µM. In experiment [4] (setting [7]), the “SI (promastigotes) = selectivity index” value is over 2.5. Further, the “activity against L. major promastigotes (in words)” value in experiment [4] (setting [8]) is given as “moderate activity”. In experiment [5], the “SI = selectivity index (Vero/T. gondii)” value was found to be 11.5.
On to `CC(C)c1cccc(C(C)CC=NNC(=O)c2cc3ccccc3cc2O)c1` (centres unmarked) [Compound 4a, N′-3-(3-Isopropylphenyl)butanylidene-3-hydroxy-2-naphthoic hydrazide], for which the IC50 in experiment [1] was over 53.4 µM; in experiment [2] it was 39.6 ± 4.8 µM; in experiment [3] it was over 53.4 µM; in experiment [4] (IC50 ± SD, MTT, 72 h) it was 9.6 ± 2.4 µM; in experiment [4] (setting [6]), under 10 µM; in experiment [5] it was 14.4 ± 2.1 µM. Also, the “activity against L. major promastigotes (in words)” value in experiment [4] (setting [8]) is “moderate activity”. Also, the “SI = selectivity index (Vero/T. gondii)” value in experiment [5] is reported as 2.8.
`CN(C)c1ccc(/C=C/C=N/NC(=O)c2ccccc2O)cc1` [Compound 2d, (E)-N′-(4-Dimethylaminocinnamylidene)-2-hydroxybenzoylhydrazide]: the concentration for half-maximal inhibition (IC50) in experiment [1] is over 42.7 µM; in experiment [2] it was 22 ± 3 µM; in experiment [3], over 42.7 µM; in experiment [4] (setting [6]), over 42.7 µM; in experiment [5], 3.9 ± 0.5 µM. The “activity against T. gondii (in words)” value in experiment [5] was “reasonable activity”. Moreover, in experiment [5], the “SI = selectivity index (Vero/T. gondii)” value was determined as 5.7.
